Laboratory results taken from publication PMC5407626 (PLoS ONE, 2017).
“And” between values parts separate entries of the source, which are not always exact repeats. Equal entries are not always repeated.

Legend:
SCD1 = biological target: T1, SCD1 (Homo sapiens, UniProt O00767); assay: SCD1 activity in ARPE-19 cells (conversion of methyl-D3 palmitic acid to methyl-D3 palmitoleic acid, LC/MS); assay type: cell-based; conditions: for Palmitate (AUC) / Palmitoleic Acid (AUC) / Ratio (16:0 / 16:1): 10 μM 16 h, then 50 μM D3-palmitic acid 5 h, single samples; for Mean Ratio (16:0 / 16:1) / effect on SCD1 activity: 10 μM; for Mean Ratio (16:0 / 16:1): mean of 3 samples, DMSO 8.884; for effect on SCD1 activity: ARPE-19 cells
T1 construct: endogenous in cells; host or cells: ARPE-19
T1 sequence (O00767 1-359): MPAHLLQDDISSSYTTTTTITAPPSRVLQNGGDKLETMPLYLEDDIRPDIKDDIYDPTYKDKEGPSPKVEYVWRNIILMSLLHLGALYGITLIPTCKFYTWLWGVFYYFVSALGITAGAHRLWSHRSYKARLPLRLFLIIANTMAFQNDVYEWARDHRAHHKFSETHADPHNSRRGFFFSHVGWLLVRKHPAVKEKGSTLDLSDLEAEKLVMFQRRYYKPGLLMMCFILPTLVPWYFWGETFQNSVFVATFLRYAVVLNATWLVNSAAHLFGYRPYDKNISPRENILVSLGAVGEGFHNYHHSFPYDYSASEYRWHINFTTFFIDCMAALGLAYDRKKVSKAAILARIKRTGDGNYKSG
Description: Compounds were dissolved in dimethyl sulfoxide (DMSO) and then added to the cell culture medium. Cells designated as control received an equal amount of dimethyl sulfoxide. After 16 h, cells were incubated with 50 μM palmitic acid triply deuterated (D3) on the methyl group (Cambridge Isotope Laboratories, Tewksbury, MA) for an additional 5 h before harvesting.
Cells were detached from culture plates using 0.05% Trypsin-EDTA, washed with PBS, and pelleted. Cell pellets were resuspended in 450 μl Cell Lysis Buffer (Cell Signaling Technology, Danvers, MA) then sonicated on ice until uniformly dispersed. An aliquot (50 μl) of the dispersed cell suspension was used for protein quantitation, and the remaining 400 μl was used for lipid extraction as follows. Samples were spiked with a small volume of pentadecanoic acid (in CHCl3) as internal standard, and were then subjected to saponification (by addition of an equal volume of 0.6 M methanolic KOH and incubating at 72°C for 15 minutes). Following saponification, samples were acidified by addition of 100 μl formic acid. The acidified mixture was extracted twice with 1 ml chloroform to recover free fatty acids. The chloroform extracts were pooled, solvent was evaporated under argon at 37°C, and the residue was resolubilized in 100 μl chloroform/methanol (1:4) for analysis by liquid chromatography mass spectrometry (LC/MS) using a modification of the procedures of Dillon et al.. The LC-MS system consisted of a 1200 Series Capillary LC (Agilent, Santa Clara, CA) coupled to a Micromass Q-Tof micro mass spectrometer (Waters Corp., Milford, MA) equipped with an electrospray ionization source. Separation of fatty acids was achieved by isocratic elution on a PLRP-S polymeric reversed-phase column (100 Å, 3 μm, 2.1 x 150 mm; Agilent) heated to 65°C. A mobile phase consisting of 25% acetonitrile:chloroform (1:1), 40% methanol, 25% water, 10% 10 mM ammonium acetate was run at a flow rate of 0.1 ml/min. The mass spectral analysis of the fatty acids was performed in the negative ion mode using the following instrument settings: capillary voltage, 1600; sample cone voltage, 40; cone gas flow, 40 L/hr; desolvation gas flow, 400 L/hr; source temperature, 80°C; desolvation temperature, 100°C. Data was then analyzed using MassLynx software v 4.1 (Waters) by extracting the ion chromatograms of the labeled palmitic and palmitoleic acid peaks and measuring peak area.
Cell lysates were analyzed by Western blotting using mouse monoclonal antibody against SCD1 (upper panel) in comparison with immunoreactivity to α-tubulin which was employed as a loading control (lower panel) and densitometry for each lane was performed and analyzed by ImageJ to provide the SCD1/α-tubulin ratio for each lane. […] Free fatty acids present in lipid extracts were analyzed by LC/MS and SCD1 activity, measured by the conversion of methyl-D3 palmitic acid to methyl-D3 palmitoleic acid, was determined. […] Lipids were extracted from two 100 mm Petri dishes and combined for mass spectrometry analysis. Data plotted as means ± standard deviation; n = 3. […] They are given here as printed results in cells, but it is uncertain whether they fall under the exclusion for gels and blots. / Panel A: the Control lane (1.00) is left out because it is not a substance.

DES1 = biological target: T2, DES1 (Homo sapiens, UniProt O15121); assay: DES1 activity in ARPE-19 cells (dihydroceramide/ceramide ratio, LC/MS); assay type: cell-based; parameters: DHCER (C18) / CER (C18) / DHCER (C16) / CER (C16): unit not given here; conditions: 10 μM, 24 h; for increase in dihydroceramide/ceramide ratio, C18 ceramide: compared to DMSO control; for MEAN RATIO (DH / C) C16 / MEAN RATIO C18 DHCER/CER: mean of 3; for MEAN RATIO (DH / C) C16: DMSO 0.08; for MEAN RATIO C18 DHCER/CER: DMSO 0.289
T2 construct: endogenous in cells; host or cells: ARPE-19
T2 sequence (O15121 1-323): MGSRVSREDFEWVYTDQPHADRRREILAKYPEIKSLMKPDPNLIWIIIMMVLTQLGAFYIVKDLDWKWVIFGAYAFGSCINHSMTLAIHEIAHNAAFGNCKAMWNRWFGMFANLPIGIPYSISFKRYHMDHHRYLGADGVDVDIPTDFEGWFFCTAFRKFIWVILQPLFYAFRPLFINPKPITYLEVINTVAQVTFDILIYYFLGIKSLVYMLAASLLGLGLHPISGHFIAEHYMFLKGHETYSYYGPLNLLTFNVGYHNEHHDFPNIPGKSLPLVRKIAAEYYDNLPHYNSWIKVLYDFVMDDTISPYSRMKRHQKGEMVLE
Description: ARPE-19 cells were seeded onto tissue culture plates at a density of 2x10^5 cells/ml in complete medium and allowed to grow overnight. Cells were then treated with retinoids (10 μM) or vehicle (control) for 24 hours in a 37°C, 5% CO2 incubator at which time cells were harvested and total lipids were extracted into methyl-tert-butyl ether (MTBE) using the method of Matyash et al.. Extracted lipids normalized to total protein as described were subjected to liquid chromatography mass spectrometry (LC/MS) to determine the sphingolipid content in treated ARPE-19 cells. LC/MS analysis was performed using a Waters 2695 LC system coupled to an AB Sciex API2000 triple quadrupole mass spectrometer. […] The mass spectral analysis of the sphingolipid species was performed using electrospray ionization in the positive ion mode with multiple reaction monitoring (MRM). The following compound-specific transitions for precursor and characteristic product ions were used: 538 → 264 for C16 Ceramide (Cer); 540 → 266 for C16 dihydroceramide (DHCer); 566 →264 for C18 Cer; and 568 → 266 for C18 DHCer. Data was acquired and analyzed using Analyst software v 1.5 (AB Sciex).
The ratio of substrate to product for C16 and C18 ceramides (dihydroceramide/ceramide) in the presence of DMSO or inhibitors was determined by LC/MS.
Lipids were extracted from one 100 mm Petri dish for each biological replicate and subjected to mass spectrometry analysis. Data plotted as means±standard deviation; n = 3.

Structure (SMILES)	Palmitate (AUC) (SCD1)	Palmitoleic Acid (AUC) (SCD1)	Ratio (16:0 / 16:1) (SCD1)	Mean Ratio (16:0 / 16:1) (SCD1)	effect on SCD1 activity (SCD1)	effect on DES1 activity / substrate accumulation (DES1)	increase in dihydroceramide/ceramide ratio, C18 ceramide (DES1)	MEAN RATIO (DH / C) C16 (DES1)	MEAN RATIO C18 DHCER/CER (DES1)	CER (C16) (DES1; single samples)	CER (C18) (DES1; single samples)	Ceramide Content, C16 CER (DES1; single samples)	Ceramide Content, C18 CER (DES1; single samples)	Mass Injected, C16 CER (DES1; single samples)	Mass Injected, C18 CER (DES1; single samples)	RATIO C18 DHCER/CER (DES1; single samples)	Ceramide Content, C18 DHCER (DES1; single samples)	DHCER (C18) (DES1; single samples)	Mass Injected, C18 DHCER (DES1; single samples)	further results
O=C(O)c1ccccc1NC(=O)N1CCC(c2ccccc2C(F)(F)F)CC1 [A1120]	625.27 and 963.80 and 854.94	74.04 and 107.80 and 111.92	8.445 and 8.941 and 7.639	8.342	no inhibitory effect on SCD1 activity at all	do not lead to overaccumulation of substrate	~ 2 fold	0.07	0.153 and 0.1528	18.30 and 24.15 and 18.55	11.60 and 16.65 and 11.05	18.30 ng and 24.15 ng and 18.55 ng	11.60 ng and 16.65 ng and 11.05 ng	3.66 ng and 4.83 ng and 3.71 ng	2.32 ng and 3.33 ng and 2.21 ng	0.136 and 0.202 and 0.120	–	–	–	–
CC1=C(/C=C/C(C)=C/C=C/C(C)=C/C(=O)Nc2ccc(O)cc2)C(C)(C)CCC1=O [3-keto-HPR, 4-oxo-N-(4-hydroxyphenyl)retinamide]	1476.16 and 1271.38 and 1913.30	17.56 and 10.07 and 19.08	84.064 and 126.254 and 100.278	103.532	effective inhibitors of SCD1 activity	inhibit DES1 activity	~ 3 fold	0.66	–	25.15 and 24.70 and 25.05	14.35 and 14.50 and 14.55	25.15 ng and 24.70 ng and 25.05 ng	14.35 ng and 14.50 ng and 14.55 ng	5.03 ng and 4.94 ng and 5.01 ng	2.87 ng and 2.90 ng and 2.91 ng	0.676 and 0.776 and 0.667	9.70 ng and 11.25 ng	9.70 and 11.25	1.94 ng and 2.25 ng	MEAN RATIO C18 DHCER/CER (DES1; listed as 3-KETO-HPR): 0.7062; MEAN RATIO C18 DHCER/CER (DES1; listed as KETO): 0.706; Ceramide Content, C16 DHCER (DES1; single samples): 19.55 ng and 15.70 ng and 14.55 ng; DHCER (C16) (DES1; single samples): 19.55 and 15.70 and 14.55; Mass Injected, C16 DHCER (DES1; single samples): 3.910 ng and 3.140 ng and 2.910 ng; RATIO (DH / C) C16 (DES1; single samples): 0.78 and 0.64 and 0.58
COc1ccc(NC(=O)/C=C(C)/C=C/C=C(C)/C=C/C2=C(C)CCCC2(C)C)cc1 [MPR, N-[4-methoxyphenyl]retinamide]	2368.01 and 2526.72 and 1327.38	–	8.882 and 7.657 and 8.556	8.365	no inhibitory effect on SCD1 activity at all	do not lead to overaccumulation of substrate	–	0.08	0.338 and 0.3375	20.40 and 20.30 and 18.55	14.65 and 15.00 and 13.65	20.40 ng and 20.30 ng and 18.55 ng	14.65 ng and 15.00 ng and 13.65 ng	4.08 ng and 4.06 ng and 3.71 ng	2.93 ng and 3.00 ng and 2.73 ng	0.362 and 0.331 and 0.319	5.30 ng and 4.97 ng and 4.35 ng	5.30 and 4.97	1.06 ng and 0.99 ng and 0.87 ng	–
CC1=C(/C=C/C(C)=C/C=C/C(C)=C/C(=O)Nc2ccc(O)cc2)C(C)(C)CCC1 [fenretinide, N-[4-hydroxyphenyl]retinamide]	–	–	–	–	effective inhibitors of SCD1 activity	inhibit DES1 activity	–	–	–	–	–	–	–	–	–	–	–	–	–	Palmitate (AUC) (SCD1; listed as 4HPR): 1258.94 and 1398.36 and 1783.91; Palmitoleic Acid (AUC) (SCD1; listed as 4HPR): 12.20 and 15.08 and 14.79; CER (C16) (DES1; single samples, listed as 4HPR): 17.20 and 18.50 and 17.10; CER (C18) (DES1; single samples, listed as 4HPR): 12.80 and 11.80 and 11.95; Ceramide Content, C16 CER (DES1; single samples, listed as 4HPR): 17.20 ng and 18.50 ng and 17.10 ng; Ceramide Content, C16 DHCER (DES1; single samples, listed as 4HPR): 6.15 ng and 4.01 ng and 5.75 ng; Ceramide Content, C18 CER (DES1; single samples, listed as 4HPR): 12.80 ng and 11.80 ng and 11.95 ng; Ceramide Content, C18 DHCER (DES1; single samples, listed as 4HPR): 9.30 ng and 7.50 ng and 7.25 ng; DHCER (C16) (DES1; single samples, listed as 4HPR): 5.75 and 6.15 and 4.01; DHCER (C18) (DES1; single samples, listed as 4HPR): 9.30 and 7.50 and 7.25; Mass Injected, C16 CER (DES1; single samples, listed as 4HPR): 3.44 ng and 3.70 ng and 3.42 ng; Mass Injected, C16 DHCER (DES1; single samples, listed as 4HPR): 1.230 ng and 0.801 ng and 1.150 ng; Mass Injected, C18 CER (DES1; single samples, listed as 4HPR): 2.56 ng and 2.36 ng and 2.39 ng; Mass Injected, C18 DHCER (DES1; single samples, listed as 4HPR): 1.86 ng and 1.50 ng and 1.45 ng
